Patent US8357694B2, “Substituted 5,6-dihydro-6-phenylbenzo[F]isoquinolin-2-amine compounds” (ArQule, Inc., priority 2008, dated 2013)
Counter-ions that a name gives are not always drawn.

Assays:
[1] = target: T1, FGFR2 kinase (Homo sapiens, UniProt P21802, N549H); test: fluorescent ELISA FGFR2 kinase assay (biochemical); conditions: FGFR2 (N549H); read-out: Biochemical data (IC50-μM) FGFR2 (N549H)
T1 construct: purchased Millipore 14-742
Experimental: The enzymatic assays described herein are conducted according to the following procedures from commercially available reagents. In one, non limiting, example, a fluorescent ELISA assay is used to identify and characterize inhibitors of FGFR2 kinase as described herein. This heterogeneous assay utilizes a biotinylated peptide with a tyrosine motif as a substrate and an anti-phospho-tyrosine antibody to measure phosphorylation of the substrate. […] The reaction is incubated for 60 minutes. As the reaction proceeds, FGFR2 phosphorylates tyrosines in the peptide. […] Peptides are captured for 30 minutes at room temperature, the phosphorylation of peptides continues during this phase. The reaction is stopped by washing the streptavidin-coated plate 6 times with TBST. […] Unbound anti-phospho-tyrosine antibody is removed by washing the streptavidin-coated plate 6 times with TBST. […] Unbound secondary antibody is removed by washing the streptavidin-coated plate 6 times with TBST.

[2] = test system: RT112; test: MTS cell kill assay, RT112; format: cell-based; conditions: Homo sapiens, RT-112, RT112
Experimental: (§1) Cells were maintained at 37° C., 5% CO2 in DMEM media supplemented with 1% fetal bovine serum, penicillin/streptomycin and fungizone (Invitrogen). Cells were seeded into 96-well tissue culture plates at 3000 per well and cultured at 37° C. for 18 hours. Test compounds were dissolved and diluted to 300× in DMSO then diluted 1:40 in DMEM.

[3] = test system: AN3-CA; test: MTS cell kill assay, AN3-CA; format: cell-based; conditions: Homo sapiens
Experimental: as §1

[4] = test system: RT4; test: MTS cell kill assay, RT4; format: cell-based; conditions: Homo sapiens, RT-4, RT4
Experimental: as §1

[5] = test system: SNU-16; test: MTS assay, SNU-16; format: cell-based; conditions: Homo sapiens
Experimental: as §1

[6] = test system: DLD-1; test: MTS cell kill, DLD-1; format: cell-based
Experimental: as §1

[7] = test system: NCI-H1299; test: MTS cell kill, NCI-H1299; format: cell-based
Experimental: as §1

[8] = test system: PC-3; test: MTS cell kill, PC-3; format: cell-based
Experimental: as §1

[9] = test system: MDA-MB-231; test: MTS cell kill, MDA-MB-231; format: cell-based
Experimental: as §1

[10] = test system: PACA-2; test: MTS cell kill, PACA-2; format: cell-based
Experimental: as §1

[11] = test system: KATO III; test: MTS assay, KATO III; format: cell-based
Experimental: as §1

[12] = test system: SNU-16; test: in vitro PD assay, SNU-16; format: cell-based; conditions: Homo sapiens
[13] = test system: KATO III; test: in vitro PD assay, KATO III; format: cell-based; conditions: Homo sapiens
[14] = SNU-16, SNU-16, read-out: MTS cell kill data (IC50-μM) SNU-16

T1 sequence (P21802 456-770 N549H limits assumed): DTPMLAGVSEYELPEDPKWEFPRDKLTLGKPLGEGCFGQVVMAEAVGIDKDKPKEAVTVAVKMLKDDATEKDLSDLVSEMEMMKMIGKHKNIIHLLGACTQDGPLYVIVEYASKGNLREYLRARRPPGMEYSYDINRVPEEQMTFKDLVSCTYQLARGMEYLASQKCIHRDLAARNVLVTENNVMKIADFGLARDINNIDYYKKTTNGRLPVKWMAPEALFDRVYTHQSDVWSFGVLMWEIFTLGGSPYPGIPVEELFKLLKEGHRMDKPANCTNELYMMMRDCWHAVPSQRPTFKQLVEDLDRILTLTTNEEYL

| SMILES | IC50 [1] [µM] | IC50 [2] [µM] | IC50 [3] [µM] | IC50 [4] [µM] | IC50 [5, 14] [µM] | MTS cell kill data (% inhibition) DLD-1 [6] | MTS cell kill data (% inhibition) NCI-H1299 [7] | MTS cell kill data (% inhibition) PC-3 [8] | MTS cell kill data (% inhibition) MDA-MB-231 [9] | MTS cell kill data (% inhibition) PACA-2 [10] | MTS cell kill data (% inhibition) KATO III [11] | other results |
| --- | --- | --- | --- | --- | --- | --- | --- | --- | --- | --- | --- | --- |
| CN1CCN(CCc2cc(Nc3ncc4c(n3)-c3ccccc3[C@H](c3ccccc3F)C4)ccc2F)CC1 [Example 174, (R)-N-(4-fluoro-3-(2-(4-methylpiperazin-1-yl)ethyl)phenyl)-6-(2-fluorophenyl)-5,6-dihydrobenzo[h]quinazolin-2-amine hydrochloride salt] | 0.0433 | 1.52 | 2 | 3.54 | 1.16 |  |  |  |  |  |  |  |
| CN1CCN(CCc2cccc(Nc3ncc4c(n3)-c3ccccc3[C@H](c3ccccc3F)C4)c2)CC1 [Example 161, (R)-6-(2-fluorophenyl)-N-(3-(2-(4-methylpiperazin-1-yl)ethyl)phenyl)-5,6-dihydrobenzo[h]quinazolin-2-amine hydrochloride] | 0.0174 | 0.627 | 0.738 | 1.47 | 0.397 |  |  |  |  |  |  |  |
| COCCN1CCN(CCc2cccc(Nc3ncc4c(n3)-c3ccccc3[C@@H](c3ccccc3F)C4)c2)CC1 [Example 164, (S)-6-(2-fluorophenyl)-N-(3-(2-(4-(2-methoxyethyl)piperazin-1-yl)ethyl)phenyl)-5,6-dihydrobenzo[h]quinazolin-2-amine] | 0.047 | 1.51 | 1.38 | 2.97 | 1.34 |  |  |  |  |  |  |  |
| Cc1cccc(Cl)c1S(=O)(=O)Nc1ccc(C2Cc3cnc(NCCCCN(C)C)nc3-c3ccccc32)cc1 (stereo not drawn) [Example 431, 2-chloro-N-[4-(2-{[4-(dimethylamino)butyl]amino}-5,6-dihydrobenzo[h]quinazolin-6-yl)phenyl]-6-methylbenzenesulfonamide] |  |  |  |  |  | A (A = 80-100% inhibition) | A (A = 80-100% inhibition) | B (B = 50-79% inhibition) | A (A = 80-100% inhibition) | A (A = 80-100% inhibition) | A (A = 80-100% inhibition) |  |
| Fc1ccccc1[C@@H]1Cc2cnc(Nc3cccc(CCN4CCNCC4)c3)nc2-c2ccccc21 [Example 163, (R)-6-(2-fluorophenyl)-N-(3-(2-(piperazin-1-yl)ethyl)phenyl)-5,6-dihydrobenzo[h]quinazolin-2-amine] | 0.0511 | 1.19 | 1.39 | 1.38 | 0.894 |  |  |  |  |  |  | melting point: 165 to 167 °C |
| CCN(CC)CCNC(=O)c1c(C)[nH]c(/C=C2\C(=O)Nc3ccc(F)cc32)c1C [Sunitinib, reference compound] |  |  |  |  |  |  |  |  |  |  |  | IC50 ([5]; SNU-16, read-out: MTS IC50): 1.1 µM; IC50 [12]: 4.3 µM; IC50 [13]: 1.6 µM; IC50 ([11]; Homo sapiens, read-out: MTS IC50): 0.3 µM |
| CN(C)CCCCNc1ncc2c(n1)-c1ccccc1C(c1ccc(NS(=O)(=O)c3cccc4cccnc34)cc1)C2 (stereo not drawn) [Example 434, N-[4-(2-{[4-(dimethylamino)butyl]amino}-5,6-dihydrobenzo[h]quinazolin-6-yl)phenyl]quinoline-8-sulfonamide] |  |  |  |  |  | A (A = 80-100% inhibition) | A (A = 80-100% inhibition) | A (A = 80-100% inhibition) | A (A = 80-100% inhibition) | A (A = 80-100% inhibition) | A (A = 80-100% inhibition) |  |
| Cc1ccc(S(=O)(=O)Nc2ccc(C3Cc4cnc(NCCCCN(C)C)nc4-c4ccccc43)cc2)c(C)c1 (stereo not drawn) [Example 423, N-[4-(2-{[4-(dimethylamino)butyl]amino}-5,6-dihydrobenzo[h]quinazolin-6-yl)phenyl]-2,4-dimethylbenzenesulfonamide] |  |  |  |  |  | A (A = 80-100% inhibition) | A (A = 80-100% inhibition) | A (A = 80-100% inhibition) | A (A = 80-100% inhibition) | A (A = 80-100% inhibition) | A (A = 80-100% inhibition) |  |
| COCCN1CCN(CCc2cc(Nc3ncc4c(n3)-c3ccccc3[C@H](c3ccccc3F)C4)ccc2F)CC1 [Example 175, (R)-N-(4-fluoro-3-(2-(4-(2-methoxyethyl)piperazin-1-yl)ethyl)phenyl)-6-(2-fluorophenyl)-5,6-dihydrobenzo[h]quinazolin-2-amine hydrochloride salt] | 0.0443 | 1.54 | 2.39 | 2.97 | 1.04 |  |  |  |  |  |  |  |
| COCCNCc1cccc(Nc2ncc3c(n2)-c2ccccc2[C@H](c2ccccc2F)C3)c1 [Example 178, (R)-6-(2-fluorophenyl)-N-(3-((2-methoxyethylamino)methyl)phenyl)-5,6-dihydrobenzo[h]quinazolin-2-amine hydrochloride] | 0.0255 | 2.68 | 1.77 | 4.28 | 0.711 |  |  |  |  |  |  |  |
| COCCN1CCN(CCc2ccc(Nc3ncc4c(n3)-c3ccccc3[C@H](c3ccccc3F)C4)cc2)CC1 [Example 66, (R)-6-(2-fluorophenyl)-N-(4-(2-(4-(2-methoxyethyl)piperazin-1-yl)ethyl)phenyl)-5,6-dihydrobenzo[h]quinazolin-2-amine hydrochloride] | 0.014 |  | 0.361 | 1.55 | 1.28 |  |  |  |  |  |  |  |
| COCC(=O)Nc1ccc(C2Cc3cnc(NCCCCN(C)C)nc3-c3ccccc32)cc1 (stereo not drawn) [Example 471, N-[4-(2-{[4-(dimethylamino)butyl]amino}-5,6-dihydrobenzo[h]quinazolin-6-yl)phenyl]-2-methoxyacetamide] |  |  |  |  |  | A (A = 80-100% inhibition) | A (A = 80-100% inhibition) | C (C = <50% inhibition) | A (A = 80-100% inhibition) | A (A = 80-100% inhibition) | A (A = 80-100% inhibition) |  |
